Results as given in patent publication US20220136033A1, “Kits and Assays for Determining Bacterial Cell Viability” (priority 2020, published 2022).
Several values for one entry are separate records, joined by “and”; a condition that tells them apart may be missing. Equal entries are not always repeated. Structures can show the parent of a compound that is named as a salt.

Assays:
[1] = Concentration of filtered EB stock solution by A530 reference; assay type: physicochemical; conditions: 0.1% (w/v) preparation in 10 mM Tris pH 7.5, undissolved dye removed by 0.22 μm filter
Protocol: Erythrosin B (EB, Sigma, Mo., USA 200964-5G) was prepared by dissolving powder in 10 mM Tris pH 7.5. Published values of the solubility of EB in aqueous solutions vary and may result from different preparations of the dye and from which supplier it is purchased. A small amount of undissolved dye was present when preparing a 0.1% (w/v) solution. This stock solution was filtered through a 0.22 μm filter to remove undissolved dye. To determine the concentration of this stock solution a fresh, dilute EB solution was prepared in which all dye fully dissolved after 10 minutes of stirring. This dilute solution was serially diluted and A530 readings (the wavelength of maximal absorbance for EB) were collected generating a reference relating EB dye concentration to A530. The filtered, stock solution of EB was then serially diluted, and absorbance values of the dilutions were compared to the reference absorbance values for the dilute solution. The stock EB concentration was determined to be 0.08% and is used throughout this work.

[2] = tested on: Gram-negative and Gram-positive bacteria; test: Bright-field microscopy viability staining with erythrosin B; assay type: cell-based
Protocol: Growth and treatments of bacteria. To prepare cells for viability studies, 3 mL overnight bacterial cultures were grown in Luria Broth. Fresh 5 mL cultures were inoculated from the overnight cultures and grown for 1 to 4 hours until reaching an OD600 of 0.4-1.1. Cells were harvested by centrifugation (15,000 g for 4 minutes) and then resuspended in phosphate buffered saline (PBS). A portion of these cells were kept at room temperature (untreated controls), while the remainder were transferred into separate microfuge tubes for different treatments. For heat shock treatment, microfuge tubes were placed at 70° C. for 30 minutes before returning to room temperature. For ethanol treatment, 100% ethanol (Decon Labs, Inc., PA, USA product number 2716) was added to cell suspensions to a final concentration of 30%. Cell mixtures were incubated at 37° C. for 30 minutes, centrifuged, and then the pellet was resuspended in PBS. For CaCl2 treatment, cells were centrifuged, and the pellet was resuspended in 1 mL of ice-cold 100 mM CaCl2 and left on ice for 45 minutes. After this initial incubation, the cells were centrifuged and resuspended in 1004 of 100 mM CaCl2.
Assaying bacterial viability. For bright-field microscopy assays, 104 of each cell suspension (untreated, heat-shocked, ethanol-treated and CaCl2-treated) was mixed with 104 of 0.08% erythrosin B and incubated for 5 minutes at room temperature. For CaCl2-treated cells, mixtures were placed at 42° C. for 60 seconds before returning to room temperature for the remainder of the incubation. 5 μl of the incubated dye:cell mixtures were taken to prepare wet mounts. Imaging was performed on a […] Olympus BX61 microscope using an UPlanSApo 100X/1.14 NA oil objective lens with an Olympus SC10 camera.

[3] = Excitation and emission spectra comparison; assay type: physicochemical; conditions: approx.
From the text: FIG. 11. The excitation and emission spectra for erythrosin B and propidium iodide, another cell viability dye that works by membrane exclusion, were compared. Erythrosin B has a narrow range for both excitation (approx. 480-550 nm) and emission (approx. 540-610 nm) compared to propidium iodide (excitation of approx. 300-350 nm and 475-575 nnm; emission of approx. 570-750 nm).
Many experiments involving fluorescent molecules, including viability assays, try to multiplex (use more than one fluorescent molecule at a time (e.g., FIG. 12)). A key limitation to the number of different fluorescent molecules that can be simultaneously used is the width of the region(s) of wavelengths for excitation and for emission. By having narrow ranges for both excitation and emission this allows erythrosin B to be more flexible than propidium iodide and potentially be paired with a wider variety of other fluorescent probes.

[4] = tested on: bacteria; test: Chemical treatments mildly affecting membrane permeability, EB staining; assay type: cell-based; conditions: 20 mM EDTA, 0.1-0.5% Triton X100, 0.12 M guanidine HCl or 0.1% SDS
From the text: All cell viability assays have limitations. The CFU method can overestimate the proportion of dead cells because any viable cells that are unable to divide, or dividing more slowly than wild-type, fail to form visible colonies and will be scored as dead. Membrane exclusion dyes, such as EB and propidium iodine, can underestimate the proportion of dead cells as recently dead cells may not have sufficiently compromised membranes to allow the dye to enter the cell. […] How other viability methods score dying cells also varies and it is often difficult to accurately quantitate, or distinguish, a dying cell population (4). For membrane-exclusion dyes, the concern is whether the dye enters cells with mildly compromised membranes that may be dying, but not dead.

[5] = tested on: Streptococcus mutans; test: Flow cytometry viability comparison, propidium iodide vs EB-based kit; assay type: cell-based; conditions: >90% alive by CFU, 30,000 events
Protocol: (§1) Determining bacterial cell viability by a different membrane exclusion dye (propidium iodide, PI) is not reliable for certain bacteria species and under certain growth conditions (10,11). Using an EB dye and adsorbent resin binding step (hereafter referred to as EB-based Kit), it is possible to reliably determine cell viability in these bacteria species (FIG. 9A-L). In these experiments, overnight cultures of Streptococcus mutans (FIG. 9A-F) and Staphylococcus epidermidis (FIG. 9G-L) were grown in Luria Broth. A portion of each culture was killed by treating with ethanol (50% ethanol, for 30 minutes at 30° C.). Overnight cells and ethanol-treated cells were centrifuged (10,000 g for 6 minutes) and then resuspended in phosphate buffered saline. Both cell suspensions were then sonicated to break apart any clusters (10% for 10 seconds). An approximately equal amount of the untreated, living overnight cells and the ethanol-treated, killed cells were mixed to generate a mixed population sample. 100 microliters of each sample (overnight culture, live/dead mixture, and killed cells) were incubated with 100 microliters of an EB-dye solution for 5 minutes. After incubation, 100 microliters of the adsorbent solution was added and gently agitated for 5 minutes on a vortexer. Following agitation, the tubes were left for 5 minutes to allow the adsorbent to settle and 200 microliters of the liquid solution above the adsorbent was transferred to a new tube. These samples were brought up to 1 mL in phosphate buffered saline. For propidium iodide staining, 40 microliters of the sonicated samples (overnight culture, live/dead mixture, and killed cells) were transferred to a fresh tube and brought up to 1 mL in phosphate buffered saline. 1 microliter of propidium iodide was added to each tube and incubated for 15 minutes before analyzing all samples by flow cytometry (FIGS. 9A-F for Streptococcus mutans and FIGS. 9G-L for Staphylococcus epidermidis).

[6] = tested on: Staphylococcus epidermidis; test: as above; assay type: cell-based
Protocol: as §1

Molecule	emission range [3]	excitation range [3]	increase in dye-positive live cells after chemical treatment [4]	other results
O.O=C([O-])c1ccccc1-c1c2cc(I)c(=O)c(I)c-2oc2c(I)c([O-])c(I)cc12.[Na+].[Na+] [EB, Erythrosin B]	540-610 nm	480-550 nm	–	stock EB concentration [1]: 0.08%; dye-positive cells after CaCl2 treatment ([2]; CaCl2-treated cells): not all treated cells were dye positive; time until clear differences between dye-negative and dye-positive cells were visible ([2]; dye incubation, bright-field): ≤ 5 min; dye-positive cells after heat shock or ethanol treatment ([2]; heat shocked and ethanol-treated organisms): virtually all treated cells were dye-positive; healthy cells dye-positive by bright-field microscopy when incubated with EB ([2]; untreated cells, all species examined): < 3%
O=C(O)CN(CCN(CC(=O)O)CC(=O)O)CC(=O)O [EDTA]	–	–	did not result in an observable increase in dye-positive live cells	–
CC[N+](C)(CC)CCC[n+]1c(-c2ccccc2)c2cc(N)ccc2c2ccc(N)cc21.[I-].[I-] [PI, propidium iodide]	570-750 nm	300-350 nm and 475-575 nm	–	cells dye-positive (dead), overnight culture [5]: virtually all cells; cells dead, Live/Dead Mixture sample ([6]; near-equal mixture of live and ethanol-killed cells): 95%; cells dye-positive (dead), overnight culture ([6]; overnight culture, >90% alive by CFU, 30,000 events): ~61%
CCCCCCCCCCCCOS(=O)(=O)[O-].[Na+] [SDS]	–	–	did not result in an observable increase in dye-positive live cells	–
N=C(N)N [guanidine HCl]	–	–	did not result in an observable increase in dye-positive live cells	–
Triton X100	–	–	did not result in an observable increase in dye-positive live cells	–
